{"source": "patent US20260376293A1", "about": "“METHODS FOR STUDYING GPR158 PHARMACOLOGY AND IDENTIFICATION OF ITS LIGANDS” (UNIVERSITY OF FLORIDA RESEARCH FOUNDATION, INCORPORATED, priority 2022, published 2026)", "target": "T1, GPR158 E271A mutant (Homo sapiens, UniProt Q5T848, E271A)", "T1 construct": "glycine site in Cache domain", "T1 sequence (Q5T848 24-1215 E271A)": "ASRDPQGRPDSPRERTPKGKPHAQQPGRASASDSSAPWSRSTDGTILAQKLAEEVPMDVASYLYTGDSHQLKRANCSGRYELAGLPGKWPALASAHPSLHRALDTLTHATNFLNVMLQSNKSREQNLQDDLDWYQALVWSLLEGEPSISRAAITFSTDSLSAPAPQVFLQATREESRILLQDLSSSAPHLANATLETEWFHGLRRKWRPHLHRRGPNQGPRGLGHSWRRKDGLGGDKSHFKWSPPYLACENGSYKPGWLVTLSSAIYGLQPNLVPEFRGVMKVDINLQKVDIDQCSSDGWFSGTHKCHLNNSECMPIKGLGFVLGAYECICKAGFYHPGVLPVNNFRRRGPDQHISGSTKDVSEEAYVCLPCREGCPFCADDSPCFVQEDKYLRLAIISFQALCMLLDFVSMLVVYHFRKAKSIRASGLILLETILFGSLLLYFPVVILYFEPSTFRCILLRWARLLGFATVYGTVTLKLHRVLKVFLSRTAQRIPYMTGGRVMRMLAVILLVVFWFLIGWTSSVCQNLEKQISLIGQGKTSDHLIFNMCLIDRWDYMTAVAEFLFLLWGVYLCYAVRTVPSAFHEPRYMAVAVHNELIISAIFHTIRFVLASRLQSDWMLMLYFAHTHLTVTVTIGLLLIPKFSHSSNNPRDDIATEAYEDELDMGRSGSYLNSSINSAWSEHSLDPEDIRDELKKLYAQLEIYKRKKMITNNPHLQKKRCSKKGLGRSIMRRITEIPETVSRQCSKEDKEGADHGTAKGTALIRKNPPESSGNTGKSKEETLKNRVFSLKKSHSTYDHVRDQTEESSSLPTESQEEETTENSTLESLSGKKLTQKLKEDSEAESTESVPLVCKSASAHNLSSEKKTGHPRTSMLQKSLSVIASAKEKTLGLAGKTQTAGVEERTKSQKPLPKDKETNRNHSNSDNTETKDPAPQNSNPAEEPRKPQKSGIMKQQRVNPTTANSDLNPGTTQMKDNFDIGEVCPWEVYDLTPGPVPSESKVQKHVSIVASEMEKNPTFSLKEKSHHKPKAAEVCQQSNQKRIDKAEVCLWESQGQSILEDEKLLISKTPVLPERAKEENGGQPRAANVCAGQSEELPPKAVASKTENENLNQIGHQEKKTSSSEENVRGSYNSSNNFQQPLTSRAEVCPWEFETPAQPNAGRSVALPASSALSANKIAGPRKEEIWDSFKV", "experiment": "Radioligand binding assay on GPR158 mutant E271A", "text": "FIGS. 11A-11G. Probing Cache domain of GPR158 as a ligand binding site A) Computational docking of glycine into putative ligand binding pocket on GPR158 Cache domain. Glycine and directly interacting residues are shown as sticks. Hydrogen bonds and van der Waals interactions are shown as dotted lines. B) Diagram showing interactions in the docked model of glycine against GPR158 Cache domain. Hydrogen bonds are shown as dashed lines, van der Waals interactions are shown as intersecting semicircles, and the secondary structural context of Ser266 and Tyr269 is shown as an arc. Dagger indicates a residue implicated in glycine binding in 11A. C) Radioligand binding assay of ^3H-glycine in cells expressing GPR158 mutants. Data shown mean±s.e.m. of 3 independent experiments, *p<0.05, ns=p>0.05 one-way ANOVA. D) Functional evaluation of GPR158 mutants in GAP BRET assay. Error bars are mean±s.e.m. of 3 independent experiments in triplicate. *p<0.05, **p<0.01, ***p<0.001, ****p<0.0001, ns=p>0.05, two-way ANOVA Columns with no fill (Ctrl), columns with angled-line fill (Glycine) E) Quantification of glycine inhibitory effect on kGAP normalized to the effect seen with WT receptor. […]\nWhole cell binding was performed using cDNA of GPR158-venus or each GPR158-venus mutant or empty pcDNA3.1+ for ctrl cells. […] Finally radioactivity was measured using the liquid scintillation analyzer Tri-Carb 4910 TR.", "data": [{"compound": "NCC(=O)O", "note": "[^3H-glycine, [^3H]-glycine]", "values": [{"measurement": "[^3H]-glycine binding", "value": "near complete loss"}]}]}
